Target: T1, human PAH with the R408W mutation (Homo sapiens, UniProt P00439, R408W)
T1 construct: expressed in transfected cells
T1 sequence (P00439 1-452 R408W): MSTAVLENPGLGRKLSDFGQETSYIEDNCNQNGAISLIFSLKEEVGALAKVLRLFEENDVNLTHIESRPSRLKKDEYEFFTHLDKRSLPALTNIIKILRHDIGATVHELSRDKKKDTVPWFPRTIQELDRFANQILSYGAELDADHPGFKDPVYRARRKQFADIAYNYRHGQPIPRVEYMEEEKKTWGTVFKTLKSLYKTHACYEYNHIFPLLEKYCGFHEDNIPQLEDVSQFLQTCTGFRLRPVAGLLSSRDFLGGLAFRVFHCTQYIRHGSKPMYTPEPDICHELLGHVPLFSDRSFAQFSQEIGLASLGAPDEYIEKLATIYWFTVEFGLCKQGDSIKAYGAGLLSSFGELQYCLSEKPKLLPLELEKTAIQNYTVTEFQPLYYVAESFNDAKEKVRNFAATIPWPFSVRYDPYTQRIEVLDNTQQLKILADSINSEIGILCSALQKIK
Assay: Cell Based Phenylalanine Flux Assay;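 note: after compound treatment, cells received sepiapterin plus isotope-labelled Phenylalanine for 4 hours, then labelled Tyrosine in the medium was quantified, 10-point 2-fold dilution series run in duplicate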
Conditions: A375 cells expressing human R408W PAH; 24 hrs compound incubation; 13C-Tyrosine by LC-MS; average where tested multiple times; read-out: AC50

AC50 [nM]	SMILES
500 to 1000	Cn1nccc1-c1nnc(C(=O)N2CCc3[nH]cnc3[C@H]2c2cc3cccc(C(F)F)n3n2)o1 [Example 1608, (S)-(4-(7-(difluoromethyl)pyrazolo[1,5-a]pyridin-2-yl)-6,7-dihydro-1H-imidazo[4,5-c]pyridin-5(4H)-yl)(5-(1-methyl-1H-pyrazol-5-yl)-1,3,4-oxadiazol-2-yl)methanone]
> 5000	Cn1nccc1-c1nnc(C(=O)N2CCc3[nH]cnc3[C@@H]2c2cc3cccc(C(F)F)n3n2)o1 [Example 1609, (R)-(4-(7-(difluoromethyl)pyrazolo[1,5-a]pyridin-2-yl)-6,7-dihydro-1H-imidazo[4,5-c]pyridin-5(4H)-yl)(5-(1-methyl-1H-pyrazol-5-yl)-1,3,4-oxadiazol-2-yl)methanone]
500 to 1000	FC(F)(F)c1cccn2nc([C@@H]3c4nc[nH]c4CCN3c3nnc(-c4ccccn4)o3)cc12 [Example 1610, (S)-2-(pyridin-2-yl)-5-(4-(4-(trifluoromethyl)pyrazolo[1,5-a]pyridin-2-yl)-6,7-dihydro-1H-imidazo[4,5-c]pyridin-5(4H)-yl)-1,3,4-oxadiazole]
> 5000	Fc1cccn2nc([C@H]3c4nc[nH]c4CCN3c3nnc(-c4ccccn4)o3)cc12 [Example 1612, (R)-2-(4-(4-fluoropyrazolo[1,5-a]pyridin-2-yl)-6,7-dihydro-1H-imidazo[4,5-c]pyridin-5(4H)-yl)-5-(pyridin-2-yl)-1,3,4-oxadiazole]
< 500	Fc1cccn2nc([C@@H]3c4nc[nH]c4CCN3c3nnc(-c4ccccn4)o3)cc12 [Example 1613, (S)-2-(4-(4-fluoropyrazolo[1,5-a]pyridin-2-yl)-6,7-dihydro-1H-imidazo[4,5-c]pyridin-5(4H)-yl)-5-(pyridin-2-yl)-1,3,4-oxadiazole]
500 to 1000	O=C(c1cnn2cc(N3CCOCC3)ccc12)N1CCc2[nH]cnc2[C@H]1c1cc2c(C(F)(F)F)cccn2n1 [Example 1614, (S)-(6-morpholinopyrazolo[1,5-a]pyridin-3-yl)(4-(4-(trifluoromethyl)pyrazolo[1,5-a]pyridin-2-yl)-6,7-dihydro-1H-imidazo[4,5-c]pyridin-5(4H)-yl)methanone]
< 500	Fc1cccn2nc([C@@H]3c4nc[nH]c4CCN3c3ncccn3)cc12 [Example 1616, (S)-4-(4-fluoropyrazolo[1,5-a]pyridin-2-yl)-5-(pyrimidin-2-yl)-4,5,6,7-tetrahydro-1H-imidazo[4,5-c]pyridine]
> 5000	Fc1cccn2nc([C@H]3c4nc[nH]c4CCN3c3ncccn3)cc12 [Example 1617, (R)-4-(4-fluoropyrazolo[1,5-a]pyridin-2-yl)-5-(pyrimidin-2-yl)-4,5,6,7-tetrahydro-1H-imidazo[4,5-c]pyridine]
< 500	Cc1cccn2nc([C@@H]3c4nc[nH]c4CCN3c3ncccn3)cc12 [Example 1618, (S)-4-(4-methylpyrazolo[1,5-a]pyridin-2-yl)-5-(pyrimidin-2-yl)-4,5,6,7-tetrahydro-1H-imidazo[4,5-c]pyridine]
1000 to 5000	Cc1cccn2nc([C@H]3c4nc[nH]c4CCN3c3ncccn3)cc12 [Example 1619, (R)-4-(4-methylpyrazolo[1,5-a]pyridin-2-yl)-5-(pyrimidin-2-yl)-4,5,6,7-tetrahydro-1H-imidazo[4,5-c]pyridine]
> 5000	Cc1cccn2nc([C@H]3c4nc[nH]c4CCN3C(=O)c3cnn4cc(-c5ccn(C)n5)ccc34)cc12 [Example 1620, (R)-(6-(1-methyl-1H-pyrazol-3-yl)pyrazolo[1,5-a]pyridin-3-yl)(4-(4-methylpyrazolo[1,5-a]pyridin-2-yl)-6,7-dihydro-1H-imidazo[4,5-c]pyridin-5(4H)-yl)methanone]
< 500	Cc1cccn2nc([C@@H]3c4nc[nH]c4CCN3C(=O)c3cnn4cc(-c5ccn(C)n5)ccc34)cc12 [Example 1621, (S)-(6-(1-methyl-1H-pyrazol-3-yl)pyrazolo[1,5-a]pyridin-3-yl)(4-(4-methylpyrazolo[1,5-a]pyridin-2-yl)-6,7-dihydro-1H-imidazo[4,5-c]pyridin-5(4H)-yl)methanone]

Source: US20230365592A1 (Agios Pharmaceuticals, Inc., priority 2022, published 2023)
